Source: patent US5169836A, “Inhibitors of platelet binding” (Trustees of the University of Penna., priority 1988, dated 1992)
Where no end group is shown, it is not given here.

How the values were obtained:
[1] = target: T1, glycoprotein IIb-IIIa on activated platelets (Homo sapiens, UniProt P05106+P08514); experiment: Binding of FITC-PAC1 to activated gel-filtered platelets, flow cytometry; conditions: for effect on FITC-PAC1 binding: platelets activated with ADP and epinephrine (10 μM each), peptide 0-100 μM
T1 construct: Venous blood from normal donors was drawn; endogenous in cells
T1 sequence (P08514 32-887 limits assumed): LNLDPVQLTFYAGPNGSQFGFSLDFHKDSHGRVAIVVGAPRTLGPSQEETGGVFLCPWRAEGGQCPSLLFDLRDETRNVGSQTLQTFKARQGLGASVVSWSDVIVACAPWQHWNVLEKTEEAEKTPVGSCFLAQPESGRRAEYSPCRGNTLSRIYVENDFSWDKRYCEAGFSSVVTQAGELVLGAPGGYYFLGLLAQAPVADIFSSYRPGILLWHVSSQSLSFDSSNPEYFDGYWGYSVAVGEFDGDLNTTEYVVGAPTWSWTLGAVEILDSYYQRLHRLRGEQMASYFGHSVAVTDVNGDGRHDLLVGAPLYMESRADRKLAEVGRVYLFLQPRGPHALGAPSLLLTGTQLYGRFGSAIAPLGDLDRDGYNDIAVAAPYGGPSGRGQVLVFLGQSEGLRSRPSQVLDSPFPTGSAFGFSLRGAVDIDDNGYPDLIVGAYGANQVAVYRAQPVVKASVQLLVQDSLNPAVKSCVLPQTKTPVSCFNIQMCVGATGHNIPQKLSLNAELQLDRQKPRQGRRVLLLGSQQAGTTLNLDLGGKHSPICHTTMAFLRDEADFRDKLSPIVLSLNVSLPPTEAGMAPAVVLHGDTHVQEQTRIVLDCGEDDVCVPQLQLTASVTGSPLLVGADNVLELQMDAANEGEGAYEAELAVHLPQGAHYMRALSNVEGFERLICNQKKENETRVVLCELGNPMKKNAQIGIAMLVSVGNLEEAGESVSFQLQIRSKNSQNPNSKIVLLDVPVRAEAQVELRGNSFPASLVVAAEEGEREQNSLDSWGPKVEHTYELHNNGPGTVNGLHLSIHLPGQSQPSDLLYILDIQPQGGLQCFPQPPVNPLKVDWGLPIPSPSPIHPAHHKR
T1 sequence (P05106 27-788): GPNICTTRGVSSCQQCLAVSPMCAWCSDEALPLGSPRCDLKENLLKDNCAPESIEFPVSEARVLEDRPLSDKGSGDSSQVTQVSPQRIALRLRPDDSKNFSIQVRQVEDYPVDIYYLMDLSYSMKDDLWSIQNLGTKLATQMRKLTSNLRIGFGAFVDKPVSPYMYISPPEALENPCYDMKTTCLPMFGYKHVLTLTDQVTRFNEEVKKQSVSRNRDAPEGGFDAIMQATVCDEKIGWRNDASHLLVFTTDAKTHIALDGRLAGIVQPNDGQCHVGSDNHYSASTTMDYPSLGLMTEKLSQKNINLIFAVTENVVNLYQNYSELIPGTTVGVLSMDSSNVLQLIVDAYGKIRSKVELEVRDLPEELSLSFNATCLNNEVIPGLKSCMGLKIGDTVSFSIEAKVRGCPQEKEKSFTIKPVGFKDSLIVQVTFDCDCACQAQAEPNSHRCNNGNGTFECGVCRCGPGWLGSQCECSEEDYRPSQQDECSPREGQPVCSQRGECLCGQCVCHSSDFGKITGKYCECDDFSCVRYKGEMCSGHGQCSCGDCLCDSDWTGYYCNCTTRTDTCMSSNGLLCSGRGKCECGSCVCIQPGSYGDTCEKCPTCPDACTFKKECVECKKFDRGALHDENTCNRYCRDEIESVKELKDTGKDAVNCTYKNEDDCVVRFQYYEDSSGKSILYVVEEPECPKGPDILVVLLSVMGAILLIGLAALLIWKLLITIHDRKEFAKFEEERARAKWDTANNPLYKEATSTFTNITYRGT
From the text: The binding of PAC1 monoclonal antibody and fibrinogen to gel-filtered human blood platelets was examined by fluorescence-activated flow cytometry using the procedures of Shattil et al., Blood, 70, 307-315 (1987). Venous blood from normal donors was drawn into 1/7 vol of NIH formula A acid-citrate-dextrose solution, platelet-rich plasma was obtained, and the platelets were gel-filtered into an isotonic HEPES-containing buffer at pH 7.4, as described in Shattil et al., Blood, 68, 1224-1231 (1986). To examine the effect of synthetic peptides on PAC1 binding to activated platelets, 5×10^7 platelets were incubated for 15 min at room temperature in a final vol of 50 μl in the presence of varying concentrations of (0-100 μM) of peptide, 40 μg/ml fluorescein-labeled PAC1 (FITC-PAC1 ), 10 μM ADP and 10 μM epinephrine. Then, 500 μl of the isotonic buffer was added and antibody binding was quantitated using a flow cytometer, as described in Shattil et al., Blood, 70, 307-315 (1987). Fibrinogen binding to platelets was measured using the same incubation system, except that 50 μg/ml of purified human fibrinogen as described in Bennett et al., J. Clin. Invest., 64, 1393-1400 (1979) was added and the monoclonal antibody, FITC-9F9, was used instead of FITC-PAC1. […] Abrams et al., Blood, 70, 335a (1987). […] Shattil et al., Blood 70, 307-315 (1987). The amount of platelet-bound FITC-PAC1 or FITC-9F9 was determined by analyzing 10,000 platelets for the extent of fluorescence at 488 nm, and binding expressed as the mean fluorescence intensity in arbitrary fluorescence units.

[2] = target: T2, blood platelet membrane fibrinogen receptor, glycoprotein IIb-IIIa (Homo sapiens, UniProt P05106+P08514); experiment: Fibrinogen binding to activated gel-filtered platelets, measured with FITC-9F9 by flow cytometry; conditions: 50 μg/ml fibrinogen
T2 construct: Venous blood from normal donors was drawn; endogenous in cells
T2 sequence (P08514 32-887 limits assumed): T1 sequence (P08514 32-887 limits assumed)
T2 sequence (P05106 27-788): T1 sequence (P05106 27-788)
From the text: The binding of PAC1 monoclonal antibody and fibrinogen to gel-filtered human blood platelets was examined by fluorescence-activated flow cytometry using the procedures of Shattil et al., Blood, 70, 307-315 (1987). Venous blood from normal donors was drawn into 1/7 vol of NIH formula A acid-citrate-dextrose solution, platelet-rich plasma was obtained, and the platelets were gel-filtered into an isotonic HEPES-containing buffer at pH 7.4, as described in Shattil et al., Blood, 68, 1224-1231 (1986). […] Then, 500 μl of the isotonic buffer was added and antibody binding was quantitated using a flow cytometer, as described in Shattil et al., Blood, 70, 307-315 (1987). Fibrinogen binding to platelets was measured using the same incubation system, except that 50 μg/ml of purified human fibrinogen as described in Bennett et al., J. Clin. Invest., 64, 1393-1400 (1979) was added and the monoclonal antibody, FITC-9F9, was used instead of FITC-PAC1. […] Previous studies have established that the amount of FITC-labeled antibody bound to platelets determined by flow cytometry is related in a linear fashion to the amount of antibody bound determined in a conventional radioligand binding assay. […]
The ability of Arg-Tyr-Asp-21mer to inhibit fibrinogen binding to activated platelets was also tested. Fibrinogen binding was assessed by flow cytometry using a FITC-labeled anti-fibrinogen monoclonal antibody, 9F9. […]

platelet glycoprotein Ib = target: T3, platelet glycoprotein Ib (Homo sapiens, UniProt P07359); experiment: Binding of FITC-AP1 to resting platelets, flow cytometry
T3 construct: platelet glycoprotein Ib on resting platelets; endogenous in cells
T3 sequence (P07359 17-652): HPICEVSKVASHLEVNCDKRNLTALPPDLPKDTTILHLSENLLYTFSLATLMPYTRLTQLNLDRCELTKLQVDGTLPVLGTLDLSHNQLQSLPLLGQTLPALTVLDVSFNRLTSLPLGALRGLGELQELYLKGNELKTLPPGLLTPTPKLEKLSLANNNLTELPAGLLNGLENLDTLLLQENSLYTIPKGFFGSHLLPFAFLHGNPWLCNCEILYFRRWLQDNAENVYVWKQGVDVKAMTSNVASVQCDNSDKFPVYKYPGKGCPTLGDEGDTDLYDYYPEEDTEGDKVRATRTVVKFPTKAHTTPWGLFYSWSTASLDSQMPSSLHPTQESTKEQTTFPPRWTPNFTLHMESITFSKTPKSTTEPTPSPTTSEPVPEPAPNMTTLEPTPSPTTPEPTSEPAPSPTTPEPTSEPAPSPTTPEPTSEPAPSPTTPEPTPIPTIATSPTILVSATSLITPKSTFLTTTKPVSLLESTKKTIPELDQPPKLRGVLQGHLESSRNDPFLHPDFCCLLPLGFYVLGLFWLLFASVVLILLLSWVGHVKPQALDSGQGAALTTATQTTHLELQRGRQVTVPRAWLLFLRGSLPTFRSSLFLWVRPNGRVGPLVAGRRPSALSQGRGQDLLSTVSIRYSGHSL
T3 sequence (P13224 26-206 partner): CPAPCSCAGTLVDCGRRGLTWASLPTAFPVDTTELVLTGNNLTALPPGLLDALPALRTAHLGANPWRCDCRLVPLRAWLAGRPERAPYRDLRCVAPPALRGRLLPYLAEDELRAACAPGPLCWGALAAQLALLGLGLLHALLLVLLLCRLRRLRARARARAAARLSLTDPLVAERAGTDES
T3 sequence (P14770 17-177 partner): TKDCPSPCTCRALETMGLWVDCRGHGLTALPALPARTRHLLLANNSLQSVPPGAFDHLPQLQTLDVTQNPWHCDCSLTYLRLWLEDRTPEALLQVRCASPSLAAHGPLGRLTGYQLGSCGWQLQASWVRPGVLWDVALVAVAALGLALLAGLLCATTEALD
Protocol: (§1) Gel-filtered platelets were incubated in the presence of Arg-Tyr-Asp-21mer and various FITC-labeled anti-platelet monoclonal antibodies. Monoclonal antibody binding was determined by flow cytometry. In the case of antibody AP1 (specific for platelet glycoprotein Ib) (unfilled circles), the platelets were not activated. In the case of antibodies PAC1 (specific for activated glycoproteins IIb-IIIa) (filled circles), BIB5 (specific for glycoprotein IIb) (filled squares) and S12 (specific for GMP-140) (unfilled triangles), the platelets were activated with ADP and epinephrine (10 μM each). The data shown are from a single experiment representative of two runs performed as described.
(§2) The binding of PAC1 monoclonal antibody and fibrinogen to gel-filtered human blood platelets was examined by fluorescence-activated flow cytometry using the procedures of Shattil et al., Blood, 70, 307-315 (1987). […] Then, 500 μl of the isotonic buffer was added and antibody binding was quantitated using a flow cytometer, as described in Shattil et al., Blood, 70, 307-315 (1987). Fibrinogen binding to platelets was measured using the same incubation system, except that 50 μg/ml of purified human fibrinogen as described in Bennett et al., J. Clin. Invest., 64, 1393-1400 (1979) was added and the monoclonal antibody, FITC-9F9, was used instead of FITC-PAC1. […]

glycoprotein IIb = target: T4, glycoprotein IIb (Homo sapiens, UniProt P08514); experiment: Binding of FITC-B1B5 to activated platelets, flow cytometry; conditions: activated platelets (ADP and epinephrine, 10 μM each)
T4 construct: endogenous in cells
T4 sequence (P08514 32-887 limits assumed): T1 sequence (P08514 32-887 limits assumed)
Protocol: as §1, §2

GMP-140 = target: T5, GMP-140 (Homo sapiens, UniProt P16109); experiment: Binding of FITC-S12 to activated platelets, flow cytometry; conditions: activated platelets (ADP and epinephrine, 10 μM each)
T5 construct: endogenous in cells
T5 sequence (P16109 42-830): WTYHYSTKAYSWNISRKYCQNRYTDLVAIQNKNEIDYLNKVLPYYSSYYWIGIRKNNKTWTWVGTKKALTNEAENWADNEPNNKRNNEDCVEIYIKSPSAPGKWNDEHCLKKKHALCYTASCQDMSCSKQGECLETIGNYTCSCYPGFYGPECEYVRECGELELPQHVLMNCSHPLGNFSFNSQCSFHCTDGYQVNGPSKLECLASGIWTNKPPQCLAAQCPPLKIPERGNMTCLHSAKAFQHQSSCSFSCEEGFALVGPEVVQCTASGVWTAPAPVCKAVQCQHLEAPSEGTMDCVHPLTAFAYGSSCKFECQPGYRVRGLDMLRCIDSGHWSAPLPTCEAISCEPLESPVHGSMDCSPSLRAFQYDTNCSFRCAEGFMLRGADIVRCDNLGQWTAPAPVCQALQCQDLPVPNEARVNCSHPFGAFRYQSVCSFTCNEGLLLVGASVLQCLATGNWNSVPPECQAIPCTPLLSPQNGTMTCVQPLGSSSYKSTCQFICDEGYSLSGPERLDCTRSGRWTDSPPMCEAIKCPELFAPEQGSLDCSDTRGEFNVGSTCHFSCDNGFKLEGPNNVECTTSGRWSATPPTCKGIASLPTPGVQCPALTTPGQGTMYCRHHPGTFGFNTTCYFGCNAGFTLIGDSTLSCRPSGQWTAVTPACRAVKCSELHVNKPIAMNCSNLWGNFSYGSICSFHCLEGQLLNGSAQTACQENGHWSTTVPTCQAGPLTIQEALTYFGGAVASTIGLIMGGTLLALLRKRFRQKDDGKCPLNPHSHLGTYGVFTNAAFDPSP
Protocol: as §1, §2

Substance | Ki ([1]; Dixon plot analysis, five separate experiments, ±SE, read-out: apparent Ki for inhibition of PAC1 binding) [µM] | IC50 ([1]; platelets activated with 10 μM ADP and 10 μM epinephrine, 40 μg/ml FITC-PAC1, 15 min, room temperature, read-out: IC50 for inhibition of the binding of FITC-PAC1 to platelets) [µM] | effect on FITC-PAC1 binding [1] | Ki ([2]; Dixon plot analysis, three experiments, ADP plus epinephrine, read-out: apparent Ki for inhibition of fibrinogen binding) [µM] | effect on the binding of FITC-AP1 to platelet glycoprotein Ib (platelet glycoprotein Ib) | effect on the binding of FITC-B1B5 to glycoprotein IIb (glycoprotein IIb) | effect on the binding of FITC-S12 to GMP-140 (GMP-140) | effect on 9F9 binding (fibrinogen binding) ([2]; platelets activated with ADP plus epinephrine)
ARRSPSYYRYDGAGPYYAMDY [Arg-Tyr-Asp-21mer] | 10.2 ± 4.3 | 20 to 30 | marked effect | 5.5 ± 3.5 | no effect | no effect | no effect | –
NH2 -Tyr-Val-Asp-Gly-Asp-Gln-Cys-(Acm)-Glu-Ser-Asn-Pro-Cys-Leu-Asn-Gly-Gly-Met(O)-Cys-(Acm)-Lys-Asp-Asp-Ile-Asn-Ser-Tyr-Gly-Cys-Phe-COOH [unrelated-28mer, reference compound] | – | – | no effect | – | – | – | – | no effect
